Test results from US20100056441A1, “Method for Inhibiting Angiogenesis” (priority 2006, published 2010).
Non-standard residues stand in square brackets, D forms with d. Residues, ends and D or L forms follow the SMILES beside them.

How the values were obtained:
mouse HCC cells = assay: Apoptosis in mouse liver tumors (H&E, TUNEL, activated caspase 3); assay type: in vivo; conditions: treated tumor-bearing mice
Excerpt: Furthermore, these apoptotic tumor cells were not apparent in FoxM1 deficient livers in dsRNA (CKO) Mx-Cre Foxm1−/− mice (FIG. 3E-3G).
(§1) To measure apoptosis in mouse livers we used the Terminal Deoxynucleotidyl Transferase-mediated dUTP-biotin Nick End Labeling (TUNEL) assay on liver sections using the ApoTag Fluorescein in situ apoptosis detection kit from Intergen (Purchase, N.Y.) according to the manufacturer's recommendations. The mean number (±SD) of TUNEL- or DAPI-positive hepatocyte nuclei was calculated per 1000 cells or 200× field by counting the number of positive hepatocyte nuclei using five different 200× fields of liver tumor sections from male mice at the indicated times of DEN/PB exposure.

[1] = test system: HCC cells of ARF -/- Rosa 26 FoxM1b TG mice; assay: Apoptosis of HCC in ARF -/- Rosa26 FoxM1b TG mice (H&E, TUNEL); assay type: in vivo, mouse
Description: In order to determine the effective concentration of dose of the ARF peptide for efficient liver delivery, mice were subjected to IP injection of either 0.1, 1, 5 or 10 mg/Kg body weight of TMR fluorescently tagged WT ARF 26-44 peptide, and were sacrificed 24 hours later, after which their livers were dissected, formalin fixed and paraffin embedded. Liver sections were treated with Xylene to remove paraffin wax and then examined by fluorescent microscopy for red peptide fluorescence. This dose response curve determined that IP injection of either equal or greater than 5 mg/Kg body weight of TMR-fluorescently labeled WT ARF 26-44 peptide was detectable in cytoplasm and nucleolus of hepatocytes and in hepatic mesenchymal cells at 24 hours after injection (FIG. 4G). […]
as §1, with “exposure. […]” for “exposure.”

FoxM1b = target: T1, FoxM1b (Homo sapiens, UniProt Q08050); conditions: cited from earlier work
T1 sequence (Q08050 1-748 isoform Q08050-2): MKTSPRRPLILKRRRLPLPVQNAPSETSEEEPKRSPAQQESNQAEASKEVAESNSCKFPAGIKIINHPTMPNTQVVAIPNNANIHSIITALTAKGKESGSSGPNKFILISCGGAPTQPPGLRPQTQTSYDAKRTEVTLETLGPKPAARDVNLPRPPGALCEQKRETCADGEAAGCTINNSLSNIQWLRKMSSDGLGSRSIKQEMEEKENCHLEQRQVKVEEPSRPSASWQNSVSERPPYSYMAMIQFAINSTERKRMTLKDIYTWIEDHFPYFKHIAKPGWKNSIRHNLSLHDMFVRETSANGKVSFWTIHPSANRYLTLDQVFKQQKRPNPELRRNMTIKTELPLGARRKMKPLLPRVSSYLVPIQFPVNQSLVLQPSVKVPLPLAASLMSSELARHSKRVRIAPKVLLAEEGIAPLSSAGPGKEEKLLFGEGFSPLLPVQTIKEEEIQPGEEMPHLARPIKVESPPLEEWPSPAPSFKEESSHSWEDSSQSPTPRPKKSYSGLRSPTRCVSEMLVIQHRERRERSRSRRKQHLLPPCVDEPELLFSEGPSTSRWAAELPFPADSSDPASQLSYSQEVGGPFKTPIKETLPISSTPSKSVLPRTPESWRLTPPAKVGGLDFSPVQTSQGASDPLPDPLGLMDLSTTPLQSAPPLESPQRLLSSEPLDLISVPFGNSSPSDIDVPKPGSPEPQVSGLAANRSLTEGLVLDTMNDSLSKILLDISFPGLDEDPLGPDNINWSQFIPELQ

| Compound | activated caspase 3 staining in adjacent normal liver tissue (mouse HCC cells) | red staining cells in surrounding normal liver tissue (H&E) (mouse HCC cells) | TUNEL-positive cells in adjacent normal liver tissue [1] | inhibition of FoxM1B activity (FoxM1b) |
| --- | --- | --- | --- | --- |
| CC(C)C[C@H](NC(=O)[C@H](C)NC(=O)[C@H](CS)NC(=O)[C@H](CO)NC(=O)[C@H](C)NC(=O)[C@@H](NC(=O)[C@H](CCCNC(=N)N)NC(=O)[C@@H]1CCCN1C(=O)[C@H](CCCNC(=N)N)NC(=O)[C@H](CCCNC(=N)N)NC(=O)[C@H](CO)NC(=O)[C@H](CCCNC(=N)N)NC(=O)[C@@H](NC(=O)[C@H](Cc1ccccc1)NC(=O)[C@H](CCCCN)NC(=O)[C@@H](CCCNC(=N)N)NC(=O)[C@@H](CCCNC(=N)N)NC(=O)[C@@H](CCCNC(=N)N)NC(=O)[C@@H](CCCNC(=N)N)NC(=O)[C@@H](CCCNC(=N)N)NC(=O)[C@@H](CCCNC(=N)N)NC(=O)[C@@H](CCCNC(=N)N)NC(=O)[C@@H](CCCNC(=N)N)NC(=O)[C@H](N)CCCNC(=N)N)C(C)C)[C@@H](C)O)C(=O)N[C@@H](C)C(=O)N[C@@H](Cc1ccccc1)C(=O)N[C@H](C(=O)N[C@@H](CC(N)=O)C(=O)O)C(C)C [WT ARF 26-44 peptide, rrrrrrrrrKFVRSRRPRTASCALAFVN] (H-[dR][dR][dR][dR][dR][dR][dR][dR][dR]KFVRSRRPRTASCALAFVN-OH; N-terminus and C-terminus assumed) | no pro-apoptotic staining in the adjacent normal liver tissue | neither in the surrounding normal liver tissue | not detected in adjacent normal liver tissue | – |
| KFVRSRRPRTASCALAFVN (listed as Homo sapiens) [p19ARF26-44 peptide, amino acids 26-44 of the p19ARF tumor suppressor protein] | – | – | – | sufficient in inhibiting FoxM1B activity |
